Reference: patent publication US10472380B2, “Platinum compounds having a heterocycle ligand, nanoparticles, and uses thereof” (PLACON THERAPEUTICS, INC., priority 2013, dated 2019)
pIC50: −log10 of the molar value.

What was measured:
[1] = test system: A549 tumor cell line; test: CellTiter-Glo cell viability assay in A549 tumor cell line; assay type: cell-based; details: CellTiter-Glo luminescence
Procedure: The cell suspension was transferred to a centrifuge tube and centrifuged at 800-1000 rpm for 3-5 minutes.
The lyophilized CellTiter-Glo substrate was equilibrated to room temperature prior to use.
The contents were mixed for 2 minutes on an orbital shaker to induce cell lysis.

[2] = test system: calf thymus DNA; details: general statement on classic platinum agents; cited from earlier work
[3] = test system: A549 cells; test: DNA platination in cells, DNA extracts analyzed by GFAA; assay type: cell-based; details: 60 μM, 2 hours at 37° C.
Procedure: 5×10^6 A549 cells were received in tubes from Nobel Life Sciences in 10% FBS, 5% DMSO. Upon thawing, cells were washed with RPMI to remove the DMSO. […] Cells were then lysed and applied to a DNEasy™ DNA purification kit. The resulting DNA extracts were then analyzed by GFAA.

| pIC50 [1] | Compound | DNA associated platinum in this type of experiment [2] | DNA platination, % of Cisplatin standard [3] |
| --- | --- | --- | --- |
| 5.37 | Di-1,1,3,3-tetramethylbutylcarbamate, ammonia quinoplatinium (II) [Compound 19] | – | – |
| – | N.N.[Cl][Pt][Cl] [Cisplatin] | high degree of DNA associated platinum | 100% |
